Experimental data from US6933322B2, “Substituted naphthylenes for the treatment of non-insulin dependent diabetes mellitus” (Wyeth, priority 2002, dated 2005).

CC(C)(C)c1ccc(-c2ccc(COc3cccc4cc(NS(=O)(=O)C(F)(F)F)ccc34)c(F)c2)cc1 [Example 6, N-[5-(4′-tert-Butyl-3-fluoro-biphenyl-4-ylmethoxy)-naphthalen-2-yl]-C,C,C-trifluoro-methanesulfonamide]
melting point: 162 to 164 °C

O=S(=O)(Nc1ccc2c(OCc3ccc(-c4ccc(F)cc4)cc3F)cccc2c1)C(F)(F)F [Example 7, N-[5-(3,4′-Difluoro-biphenyl-4-ylmethoxy)-naphthalen-2-yl]-C,C,C-trifluoro-methanesulfonamide]
melting point: 134 to 136 °C

O=S(=O)(Nc1ccc2c(OCc3ccc(-c4ccc(Cl)cc4)cc3F)cccc2c1)C(F)(F)F [Example 8, N-[5-(4′-Chloro-3-fluoro-biphenyl-4-ylmethoxy)-naphthalen-2-yl]-C,C,C-trifluoro-methanesulfonamide]
melting point: 151 to 153 °C

COC1(F)C=CC(c2cccc(COc3cccc4cc(NS(=O)(=O)C(F)(F)F)ccc34)c2)=CC1 (centres unmarked) [Example 12, N-[5-(4′-Fluoro-4′-methoxy-biphenyl-3-ylmethoxy)-naphthalen-2-yl]-C,C,C-trifluoro-methanesulfonamide]
melting point: 125 to 127 °C

O=S(=O)(Nc1ccc2c(OCc3ccccc3-c3ccccc3)cccc2c1)C(F)(F)F [Example 19, N-[5-(Biphenyl-2-ylmethoxy)-naphthalen-2-yl]-C,C,C-trifluoromethanesulfonamide]
melting point: 119 to 121 °C

COc1ccc(-c2cccc(COc3cccc4cc(NS(=O)(=O)C(F)(F)F)ccc34)c2)cc1 [Example 20, C,C,C-Trifluoro-N-[5-(4′-methoxy-biphenyl-3-ylmethoxy)-naphthalen-2-yl]-methanesulfonamide]
melting point: 123 to 125 °C

COc1ccc(-c2ccc(Cl)cc2)cc1COc1cccc2cc(NS(=O)(=O)C(F)(F)F)ccc12 [Example 21, N-[5-(4′-Chloro-4-methoxy-biphenyl-3-ylmethoxy)-naphthalen-2-yl]-C,C,C-trifluoromethanesulfonamide]
melting point: 155 to 157 °C

O=S(=O)(Nc1ccc2c(OCc3ccc(-c4ccc(Cl)cc4)cc3)cccc2c1)C(F)(F)F [Example 22, N-[5-(4′-Chloro-biphenyl-4-ylmethoxy)-naphthalen-2-yl]-C,C,C-trifluoromethanesulfonamide]
melting point: 131 to 133 °C

Cc1c(COc2cccc3cc(NS(=O)(=O)C(F)(F)F)ccc23)cccc1-c1ccccc1 [Example 23, C,C,C-Trifluoro-N-[5-(2-methyl-biphenyl-3-ylmethoxy)-naphthalen-2-yl]-methanesulfonamide]
melting point: 124 to 125 °C

O=S(=O)(Nc1ccc2c(OCc3ccc(-c4ccccn4)cc3)cccc2c1)C(F)(F)F [Example 24, C,C,C-Trifluoro-N-[5-(4-pyridin-2-yl-benzyloxy)-naphthalen-2-yl]-methanesulfonamide]
melting point: 119 to 120 °C

COc1ccc(-c2cc(COc3cccc4cc(NS(=O)(=O)C(F)(F)F)ccc34)ccc2F)cc1 [Example 26, C,C,C-Trifluoro-N-[5-(6-fluoro-4′-methoxy-biphenyl-3-ylmethoxy)-naphthalen-2-yl]-methanesulfonamide]
melting point: 132 to 133 °C

O=S(=O)(Nc1ccc2c(OCc3ccc(-c4ccccc4)cc3Cl)cccc2c1)C(F)(F)F [Example 29, N-[5-(3-Chloro-biphenyl-4-ylmethoxy)-naphthalen-2-yl]-C,C,C-trifluoro-methanesulfonamide]
melting point: 131 to 134 °C

O=S(=O)(Nc1ccc2c(OCc3cccc(-c4ccc(F)cc4)n3)cccc2c1)C(F)(F)F [Example 42, C,C,C-Trifluoro-N-{5-[6-(4-fluoro-phenyl)-pyridin-2-ylmethoxy]-naphthalen-2-yl}-methanesulfonamide]
melting point: 173 to 174 °C

O=S(=O)(Nc1ccc2c(OCc3cccc(-c4ccc(C(F)(F)F)cc4)n3)cccc2c1)C(F)(F)F [Example 43, C,C,C-Trifluoro-N-{5-[6-(4-trifluoromethyl-phenyl)-pyridin-2-ylmethoxy]-naphthalen-2-yl}-methanesulfonamide]
melting point: 180 to 182 °C
